Article PMC6121260, “Sulfated Metabolites of Flavonolignans and 2,3-Dehydroflavonolignans: Preparation and Properties” (International Journal of Molecular Sciences, 2018)
Where two headings read alike, the source gives them in different places. Marks after values point to notes of the source that are not given here.

Columns and labels:
[1] = Stability of the isolated sulfate; format: physicochemical; settings: after isolation
Procedure: It quickly decomposed into a mixture of at least five products and, therefore, it was not studied further.
Silydianin (150 mg, 0.311 mmol) was sulfated using the same procedure as for silybin. Silydianin-19-O-sulfate was obtained as a yellowish solid (101 mg, 58.3%). Its structure was determined by HRMS (m/z calcd. for C25H21O13 S 561.07083, found 561.07141) and NMR (see Figure S13 and Table S5, Supplementary Material).

[2] = target: T1, aryl sulfotransferase from rat liver (AST IV) (Rattus norvegicus, UniProt P17988); assay: Substrate specificity of AST IV (whole E. coli cells, p-NPS donor); format: in vitro ADME; set-up: key: +: isolated sulfated product(s) and/or release of p-nitrophenol (p-NP); –: no formation of p-NP and/or isolated sulfated products; settings: whole E. coli cells expressing AST IV, 37 °C, 72 h
T1 construct: made in house; host or cells: E. coli BL21 (DE3) Gold (whole cells used as catalyst)
Procedure: The plasmid bearing astIV gene was kindly provided by Prof. L. Elling, RWTH Aachen, Germany. The enzyme was expressed in E. coli BL21 (DE3) Gold as described, with modifications reported in our previous work. Whole E. coli cells producing the enzyme, freshly prepared according to the literature, were employed in the biotransformation experiments as a catalyst.
Silybin, silybin A, silybin B, silychristin, and silydianin (separately, each 50 mg, 0.104 mmol) and p-nitrophenyl sulfate (p-NPS, 35 mg, 0.136 mmol; Sigma-Aldrich, St. Louis, MO, USA) were dissolved in 3 mL DMSO, and 2 g (wet based) of whole cells expressing AST IV resuspended in K-phosphate buffer (pH 7.5, 17 mL) were added. The reaction mixture was incubated on a rotary shaker at 37 °C for 24 h. The cells were then removed by centrifugation (30 min, 5000 rpm, 5404 R Eppendorf, Germany), a new portion of fresh cells (2 g in 15 mL, wet based, resuspended in K-phosphate buffer) were added to the supernatant and incubated for 24 h. This step was repeated once more with a total reaction time of 72 h. The reaction was monitored by HPLC and after 72 h, the reaction mixtures, containing the sulfated product(s), were purified by preparative HPLC employing Asahipak GS-310 20F (Shodex, Tokyo, Japan) column with isocratic elution with 100% methanol. The fraction containing the putative sulfated product(s) was evaporated, dissolved in 1 mL of 80% methanol, and loaded onto a Sephadex LH-20 column (15 g dry weight, 12 mm i.d.) packed and eluted with 80% methanol. Only one sulfated product was obtained; silybin B 20-O-sulfate (14.5 mg, 0.03 mmol, yield 25%), whose identity was confirmed by comparison with previously published data.

[3] = ABTS+ cation radical scavenging; format: biochemical; settings: vitamin C equivalents, mean ± standard error
Procedure: (§1) N,N-dimethyl-p-phenylenediamine (DMPD) and 2,2′-azino-bis(3-ethylbenzothiazolin-6-sulfonic acid (ABTS) cation radical scavenging and ferric reducing antioxidant power (FRAP) were measured using kits from Bioquochem (Llanera-Asturias, Spain). Antiradical activity by 2,2-diphenyl-1-picrylhydrazyl radical scavenging assay, reducing capacity using Folin–Ciocalteau reagent (FCR), and anti-lipoperoxidant activity using inhibition of lipid peroxidation of rat liver microsomes induced by tert-butyl hydroperoxide were determined as described previously with modifications described in detail in our previous research.

DPPH radical scavenging = format: biochemical; settings: mean ± standard error
Procedure: as §1

[4] = Ferric reducing antioxidant power (FRAP); format: biochemical; settings: equivalents of Fe^2+, mean ± standard error
Procedure: as §1

[5] = DMPD+ cation radical scavenging; format: biochemical; settings: vitamin C equivalents, mean ± standard error
Procedure: as §1

[6] = Folin–Ciocalteu reagent (FCR) reduction; format: biochemical; settings: Folin–Ciocalteau reagent reduction, gallic acid equivalents; mean ± standard error
Procedure: as §1

[7] = Inhibition of lipoperoxidation (Lpx) induced by tert-butyl hydroperoxide; format: biochemical; settings: rat liver microsomal membranes, mean ± standard error
Procedure: as §1

[8] = Log p, octan-1-ol / phosphate buffer partition; format: physicochemical; settings: octan-1-ol / 6.6 mM phosphate buffer pH 7.4, 25 °C
Procedure: The hydrophobicity of the compounds was determined by measuring their partition coefficient P in a mixture of two immiscible phases—octan-1-ol and 6.6 mM phosphate buffer pH 7.4. Stock solutions (0.5 mM) were prepared in octan-1-ol (parent compounds) and in the buffer (sulfated compounds). The stock solutions (150 µL) were mixed with 150 µL of the immiscible phase in microcentrifuge tubes (1.5 mL); shaken for 2 h (750 rpm, 25 °C); and after incubation, the phases were separated. Water phases were diluted 1:1 with the mobile phase (acetonitrile/deionized water/HCO2H, 5:95:0.1; v/v) and analyzed by HPLC using the gradient G3 (see Section 3.1.3). Octan-1-ol phases were evaporated in the stream of air (70 °C), then dissolved in 10 µL of DMSO, and mixed with 90 µL of mobile phase and analyzed by HPLC. The log p values were calculated from the respective peak heights (h) using the formula log p = log(hoctanol/hbuffer). For comparison, log p values were calculated using the Molinspiration property engine v2016.10 (http://www.molinspiration.com, Molinspiration Cheminformatics, Slovensky Grob, Slovakia) (access on 26th October 2017).

[9] = set-up: method as in PMID 26260337, PMID 16919302; settings: read-out: DPPH scavenging IC50; cited from earlier work

T1 sequence (P17988 whole entry): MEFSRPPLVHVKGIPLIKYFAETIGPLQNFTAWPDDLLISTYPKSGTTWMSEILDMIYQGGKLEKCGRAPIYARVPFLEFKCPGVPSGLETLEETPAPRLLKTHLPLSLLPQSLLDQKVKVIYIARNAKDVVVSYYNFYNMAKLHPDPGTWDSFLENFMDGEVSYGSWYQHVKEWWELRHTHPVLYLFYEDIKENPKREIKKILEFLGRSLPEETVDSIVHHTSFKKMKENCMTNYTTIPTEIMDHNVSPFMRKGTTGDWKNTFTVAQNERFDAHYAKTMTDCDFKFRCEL

Row | Structure (SMILES) | Stability of the compound [1] | Stability of the compound ([1]; listed as silydianin-19-O-sulfate) | Formation of p-NP [2] | ABTS^+ [CE] [3] | IC50 (DPPH radical scavenging) | FRAP [Fe^2+] [4] | DMPD^+ [CE] [5] | DMPD^+ [CE] ([5]; listed as silychristin) | FCR [GAE] [6] | IC50 [7] | logP at 2 h [8] | IC50 [9]
1 | COc1cc(C2C3C=C(C4Oc5cc(O)cc(O)c5C(=O)C4O)C4C2COC4(O)C3=O)ccc1OS(=O)(=O)O (centres unmarked) [Silydianin-19-O-sulfate] | unstable | extremely unstable |  |  |  |  |  |  |  |  |  | 
2 | COc1cc(C2Oc3cc([C@H]4Oc5cc(O)cc(O)c5C(=O)[C@@H]4O)ccc3OC2CO)ccc1O (some centres unmarked) [Silybin A/B, Silybin] |  |  | + ^a |  |  |  |  |  |  |  |  | 
3 | COc1cc(C2Oc3c(O)cc([C@H]4Oc5cc(O)cc(O)c5C(=O)[C@@H]4O)cc3C2CO)ccc1O (some centres unmarked) [Silychristin, reference compound] |  |  | + ^a | 1.50 ± 0.09 CE | 37.1 ± 3.1 µM | 0.64 ± 0.06 Fe^2+ | 1.50 ± 0.02^o CE | 1.5 CE | 1.13 ± 0.23 ^m GAE | 17.9 ± 0.7 µM | 1.47 | 
4 | O=C1c2c(O)cc(O)cc2OC(c2ccc(O)c(O)c2)C1O (centres unmarked) [taxifolin] |  |  |  |  |  |  |  |  |  |  |  | 6 to 10 µM
5 | COc1cc([C@@H]2Oc3cc([C@H]4Oc5cc(O)cc(O)c5C(=O)[C@@H]4O)ccc3O[C@H]2CO)ccc1O [Silybin B, silybin B, reference compound] |  |  | + ^a | 0.97 ± 0.05 ^i CE | 546 ± 17 µM | 0.04 ± 0.00 ^q Fe^2+ | 1.09 ± 0.01 ^n CE |  | 0.36 ± 0.03 ^k GAE | 68.6 ± 2.2 µM | 2.17 | 
6 | COc1cc([C@H]2Oc3cc([C@H]4Oc5cc(O)cc(O)c5C(=O)[C@@H]4O)ccc3O[C@@H]2CO)ccc1O [Silybin A, silybin A, reference compound] |  |  | – ^c | 1.01 ± 0.03 ^i CE | 490 ± 21 µM | 0.06 ± 0.00 Fe^2+ | 0.96 ± 0.01 ^n CE |  | 0.33 ± 0.02 ^k GAE | 48.6 ± 0.4 µM | 1.52 | 
